Assay results taken from ChEMBL document CHEMBL3352223, “Synthesis, anti-cancer and anti-inflammatory activity of novel 2-substituted isoflavenes” (Bioorg Med Chem, 2014).

Assays:
[1] = Antiproliferative activity against human SHEP cells after 72 hrs by Alamar blue/spectrophotometric analysis; type: functional, cell-based
MDA-MB-231 = experiment: Antiproliferative activity against human MDA-MB-231 cells after 72 hrs by Alamar blue/spectrophotometric analysis; type: functional, cell-based; conditions: MDA-MB-231, 72 h
RAW264.7 = experiment: Antiinflammatory activity against mouse RAW264.7 cells assessed as reduction of LPS-induced IL6 production at 10 uM after 24 hrs by ELISA; type: functional; conditions: RAW264.7, 24 h

Structure (SMILES): CC(=O)CC1Oc2cc(O)ccc2C=C1c1ccc(O)cc1 (centres undefined)
- IC50 [1]: 124 µM
- IC50 (MDA-MB-231): 145 µM
- inhibition at 10 µM (RAW264.7): > 50%

Structure (SMILES): CC(C)CC(=O)CC1Oc2cc(O)ccc2C=C1c1ccc(O)cc1 (centres undefined)
- IC50 [1]: 139 µM
- IC50 (MDA-MB-231): 67 µM

Structure (SMILES): O=C(CC1Oc2cc(O)ccc2C=C1c1ccc(O)cc1)c1ccccc1 (centres undefined)
- IC50 [1]: 102 µM
- IC50 (MDA-MB-231): 88 µM

Structure (SMILES): Cc1ccc(C(=O)CC2Oc3cc(O)ccc3C=C2c2ccc(O)cc2)cc1 (centres undefined)
- IC50 [1]: 60 µM
- IC50 (MDA-MB-231): 55 µM

Structure (SMILES): CCc1ccc(C(=O)CC2Oc3cc(O)ccc3C=C2c2ccc(O)cc2)cc1 (centres undefined)
- IC50 [1]: 377 µM
- IC50 (MDA-MB-231): 198 µM

Structure (SMILES): COc1ccc(C(=O)CC2Oc3cc(O)ccc3C=C2c2ccc(O)cc2)cc1 (centres undefined)
- IC50 [1]: 37 µM
- IC50 (MDA-MB-231): 7.6 µM
- inhibition at 10 µM (RAW264.7): > 50%

Structure (SMILES): O=C(CC1Oc2cc(O)ccc2C=C1c1ccc(O)cc1)c1ccc(Br)cc1 (centres undefined)
- IC50 [1]: 33 µM
- IC50 (MDA-MB-231): 37 µM

Structure (SMILES): O=C(CC1Oc2cc(O)ccc2C=C1c1ccc(O)cc1)c1ccc(Cl)cc1 (centres undefined)
- IC50 [1]: 167 µM
- IC50 (MDA-MB-231): 151 µM

Structure (SMILES): O=C(CC1Oc2cc(O)ccc2C=C1c1ccc(O)cc1)c1cccc2ccccc12 (centres undefined)
- IC50 [1]: 128 µM
- IC50 (MDA-MB-231): 106 µM

Structure (SMILES): C/C(CC1Oc2cc(O)ccc2C=C1c1ccc(O)cc1)=N\Nc1ccc([N+](=O)[O-])cc1[N+](=O)[O-] (centres undefined)
- IC50 [1]: 62 µM
- IC50 (MDA-MB-231): 36 µM

Structure (SMILES): Cc1cc(C2Oc3cc(O)ccc3C=C2c2ccc(O)cc2)cc(C)c1N (centres undefined)
- IC50 [1]: 102 µM
- IC50 (MDA-MB-231): 53 µM
- inhibition at 10 µM (RAW264.7): > 50%

Structure (SMILES): COc1ccc(C2=C(c3ccc(O)cc3)C(CC(C)=O)Oc3cc(O)ccc32)cc1 (centres undefined)
- IC50 [1]: 69 µM
- IC50 (MDA-MB-231): 39 µM

Structure (SMILES): Oc1ccc(C2=Cc3ccc(O)cc3OC2)cc1 [IDRONOXIL]
- IC50 [1]: 9.9 µM
- IC50 (MDA-MB-231): 33 µM
